For 17 compounds, IC50 results are on record in patent US12534450B2, “Methods and compositions for targeting PD-L1” (Aligos Therapeutics, Inc., priority 2021, dated 2026).

pIC50: −log10 of the molar value.

The target of the experiment is PD-1/PD-L1 PPI (Homo sapiens, UniProt Q9NZQ7). Kind of experiment: PDL1/PD1 Binding Assay. As to conditions: PDL1-6×His 0.3 nM, PD1-Fc-Avi-Biotin 2.5 nM, Acceptor/Donor beads, Envision reader. As to the method: Compounds to be tested were serially diluted in DMSO, and further diluted in assay buffer (25 mM Hepes pH 7.4, 150 mM NaCl, 0.005% Tween 20, BSA 0.01%). Diluted compounds were added to the wells with final concentration of DMSO at 1%. PDL1-6×His protein was added to the wells, mixed well with compound. The plates were incubated for 30 min at room temperature. PD1-Fc-Avi-Biotin protein was added to the wells. Final concentration of PDL1 and PD1 protein is 0.3 nM and 2.5 nM, respectively. After a binding time of 30 min at room temperature, Anti-6×His Acceptor beads (final concentration 20 ug/ml) were added to the wells, and the incubation continued for 1 h. Streptavidin Donor beads (final concentration 20 ug/mL) were added at reduced light. The plates were sealed with foil and incubated in the dark for additional 1 h or overnight before reading on an Envision reader. The IC50 values were determined by fitting the curves using a four-parameter equation in Graphpad Prism 8.
Sequence of PD-1/PD-L1 PPI (Q9NZQ7 19-238 limits assumed): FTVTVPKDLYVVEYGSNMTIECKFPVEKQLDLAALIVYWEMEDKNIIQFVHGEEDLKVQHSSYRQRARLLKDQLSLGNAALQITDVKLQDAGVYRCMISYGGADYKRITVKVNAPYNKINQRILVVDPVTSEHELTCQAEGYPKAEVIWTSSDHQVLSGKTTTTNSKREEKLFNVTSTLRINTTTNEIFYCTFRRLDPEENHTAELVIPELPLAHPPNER
As usually defined, the pIC50 is the IC50 on a negative log10 scale, so that one unit is a factor of ten. As for `COc1nc(-c2cccc(-c3cccc(NC(=O)c4cn(C)c(=O)n(C)c4=O)c3Cl)c2Cl)cc2c1[C@@H](N1CC(OC)C1)CC2` (single isomer, unassigned) [Compound A-24], the pIC50 was not below 8.00.

With `COc1nc(-c2cccc(-c3cccc(NC(=O)c4cn(C)c(=O)n(C)c4=O)c3Cl)c2Cl)cc2c1[C@@H](N1CC(O)C1)CC2` (single isomer, unassigned) [Compound A-26], the pIC50 was not below 8.00.

Consider `COc1nc(-c2cccc(-c3cccc(NC(=O)c4cn(C)c(=O)n(C)c4=O)c3Cl)c2F)cc2c1[C@H](N[C@@H]1CCOC[C@@H]1O)CC2` (single isomer, unassigned) [Compound A-32], for which the pIC50 was not below 8.00.

For `COc1nc(-c2cccc(-c3cccc(NC(=O)c4cn(C)c(=O)n(C)c4=O)c3C)c2C)cc2c1[C@H](N[C@@H]1CCOC[C@@H]1O)CC2` (single isomer, unassigned) [Compound A-34], the pIC50 is not below 8.00.

In the case of `COc1nc(-c2cccc(-c3cccc(NC(=O)c4cn(C)c(=O)n(C)c4=O)c3C)c2F)cc2c1[C@H](N[C@@H]1CCOC[C@@H]1O)CC2` (single isomer, unassigned) [Compound A-35], the negative-log IC50 (pIC50) was not below 8.00.

In the case of `COc1nc(-c2cccc(-c3cccc(NC(=O)c4cn(C)c(=O)n(C)c4=O)c3F)c2Cl)cc2c1[C@H](N[C@@H]1CCOC[C@@H]1O)CC2` (single isomer, unassigned) [Compound A-36], the negative logarithm of the IC50 (pIC50) is not below 8.00.

Consider `COc1nc(-c2cccc(-c3cccc(NC(=O)c4cn(C)c(=O)n(C)c4=O)c3F)c2C)cc2c1[C@H](N[C@@H]1CCOC[C@@H]1O)CC2` (single isomer, unassigned) [Compound A-37], for which the pIC50 is not below 8.00.

Turning to `COc1nc(-c2cccc(-c3cccc(NC(=O)c4cn(C)c(=O)n(C)c4=O)c3F)c2F)cc2c1[C@H](N[C@@H]1CCOC[C@@H]1O)CC2` (single isomer, unassigned) [Compound A-38], the pIC50 is not below 8.00.

`COc1nc(-c2cccc(-c3cccc(NC(=O)c4cn(C)c(=O)n(C)c4=O)c3C)c2Cl)cc2c1[C@H](NC[C@@H]1CCC(=O)N1)CC2` [Compound A-10] gave a pIC50 not below 8.00.

Regarding `COc1nc(-c2cccc(-c3cccc(NC(=O)c4cn(C)c(=O)n(C)c4=O)c3F)c2Cl)cc2c1[C@H](NC[C@@H]1CCC(=O)N1)CC2` [Compound A-11], the negative-log IC50 (pIC50) was not below 8.00.

In turn, `COc1nc(-c2cccc(-c3cccc(NC(=O)c4cn(C)c(=O)n(C)c4=O)c3Cl)c2C)cc2c1[C@H](NC[C@@H]1CCC(=O)N1)CC2` [Compound A-12] gave a pIC50 not below 8.00.

With `COc1nc(-c2cccc(-c3cccc(NC(=O)c4cn(C)c(=O)n(C)c4=O)c3C)c2C)cc2c1[C@H](NC[C@@H]1CCC(=O)N1)CC2` [Compound A-13], the pIC50 was not below 8.00.

Compound `COc1nc(-c2cccc(-c3cccc(NC(=O)c4cn(C)c(=O)n(C)c4=O)c3F)c2C)cc2c1[C@H](NC[C@@H]1CCC(=O)N1)CC2` [Compound A-14] had a pIC50 not below 8.00.

The compound `COc1nc(-c2cccc(-c3cccc(NC(=O)c4cn(C)c(=O)n(C)c4=O)c3Cl)c2F)cc2c1[C@H](NC[C@@H]1CCC(=O)N1)CC2` [Compound A-15] gave a pIC50 not below 8.00.

On to `COc1nc(-c2cccc(-c3cccc(NC(=O)c4cn(C)c(=O)n(C)c4=O)c3C)c2F)cc2c1[C@H](NC[C@@H]1CCC(=O)N1)CC2` [Compound A-16], for which the pIC50 is not below 8.00.

The compound `CCOC(=O)N(C[C@@H]1CCC(=O)N1)[C@H]1CCc2cc(-c3cccc(-c4cccc(NC(=O)c5cn(C)c(=O)n(C)c5=O)c4C)c3Cl)nc(OC)c21` [Compound E-1] had a negative-log IC50 (pIC50) not below 8.00.

Consider `COc1nc(-c2cccc(-c3cccc(NC(=O)c4cn(C)c(=O)n(C)c4=O)c3C)c2Cl)cc2c1[C@@H](N(C[C@@H]1CCC(=O)N1)C(=O)OCc1oc(=O)oc1C)CC2` [Compound F-1], for which the pIC50 was not below 8.00.
